What was measured:
HeLa cells [1] = test: Effect of 3-MA on 1-induced cytotoxicity (MTT); assay type: cell-based, human; conditions: 3-MA 10 mM 1 h then 1 for 24 h, P<0.001
Protocol: HeLa cells were pre-treated with 3-MA (10 mM) for 1 h, and then with 1 for 24 h as indicated. Cell viability was measured using MTT assay *, P<0.001. Effect of 3-MA on 1-induced cytotoxicity. Cells were seeded on 96-well microtitre plates (8×10^3 cells per well). After overnight incubation, the cells were pre-incubated with 3-methyladenine (3-MA, 10 mM) for 1 hour and then in the presence of 1 (DMSO<1%) for 24 h. Cell viability was measured by MTT assay as described before.

[2] = system: human hepatocellular cancinoma cells QGY-7703; test: MTT cell viability assay, QGY-7703; assay type: cell-based
Source text: (§1) Human cervical epitheloid carcinoma cells (HeLa), human hepatocellular carcinoma cells (HepG2 and Hep3B), human breast cancer cells (MCF-7), human coloadenocarcinoma cells (HCT-8), and normal human lung fibroblast cells (CCD-19Lu) were purchased from American Type Culture Collection (ATCC) Rockville, Md., USA. The human hepatocellular cancinoma cells QGY-7703, and the multi-drug resistant cell line QGY-TR50 derived from QGY-7703, were generously provided by Prof. Yong Xie (The Hong Kong University of Science and Technology, Hong Kong PRC). QGY-TR50 cells were isolated and cultured as described (J. Zhou, S. C. Cheng, D. Luo, Y. Xie Biochem. Biophys. Res. Commun. 2001, 280, 1237-1242). Human nasopharyngeal carcinoma cells (SUNE1 and its cisplatin-resistant variant—CNE2) were derived from poorly differentiated NPC in Chinese patients and were generously provided by Dr. S. W. Tsao (The University of Hong Kong, Hong Kong PRC). Cell culture flasks and 96-well microtitre plates were from Nalge Nunc Int. Culture medium, other medium constituents and phosphate buffer saline (PBS) were obtained by Gibco BRL Rockville, Md., USA. Cell Proliferation kit I (MTT) was purchased from Roche. Mannheim, Germany.

[3] = system: multi-drug resistant cell line QGY-TR50; test: MTT cell viability assay, QGY-TR50; assay type: cell-based, human
Source text: as §1

PARP = test: Western blotting analysis, PARP; assay type: cell-based, human; conditions: HeLa, 2 μM, after the treatment
Protocol: Cells were washed in cold phosphate-buffered saline (PBS) at 4° C. and lysed in a buffer containing 0.05 M Tis.HCl (pH 7.5), 0.25 M NaCl, 0.005 M EDTA, 0.05 M NaF, 1 mM DTT and 1% Triton. Cell lysates were collected and the protein concentration of cell lysates was measured using a Protein detection kit (Bio-Rad). Equal amount of proteins was resolved in a 12% SDS-PAGE gel and transferred onto nitrocellulose membranes. The membrane was blocked with a blocking solution (1×TBS, 0.1% Tween-20 with 5% non-fat dry milk) at room temperature for 1 h, and washed three times with washing buffer (1×TBS, 0.1% Tween-20) for 5 min each. The membrane was then incubated with primary antibody (Caspase 3, Bid, PARP and β-Actin respectively) for overnight at 4° C. The membrane was washed three times with washing buffer for 5 min each before incubation with the corresponding secondary antibody (horse anti-mouse IgG or goat anti-rabbit IgG). Membrane was washed again and signals were detected using an ECL detection kit (Amersham Pharmacia Biotech) followed by the exposure to X-ray films (Fujifilm).
After treatment with complex 1 for different time intervals, the expressions of caspase 3, Bid and PARP were detected by the Western blotting analysis. […] Moreover, treatment with complex 1 leads to a reduction in the level of un-cleaved Bid.

[4] = system: human breast cancer cells (MCF-7); test: MTT cell viability assay, MCF-7; assay type: cell-based
Source text: as §1

HeLa cells [5] = test: Confocal microscopy with AO/EB staining; assay type: cell-based, human; conditions: complex 1 0.2 μM 20 h, complex 2b 10 μM 16 h
Source text: Confocal Microscopic Experiment. By examining cell morphology under scanning confocal microscopy, the type of cell death can be distinguished. Early phase of apoptosis is characterized by the formation of apoptotic bodies when the integrity of the cell membrane is maintained without cell lysis. On the other hand, necrosis is characterized by cell lyses with the leaking out of internal cellular components such as DNA. With ethidium bromide (DNA stain) and acridine orange (cell membrane stain) as staining agents, normal, apoptotic and necrotic cells can be distinguished under laser confocal microscopy (Chan et. al., Inorg. Chem. 2002, 41, 3161-3171).

calf thymus DNA = test: Absorption titration with calf thymus DNA; assay type: binding; conditions: Tris buffer
Protocol: The calf thymus DNA was purchased from Sigma-Aldrich Chemical Co. and was purified by phenol-chloroform extraction. The DNA was dissolved in buffer (5 mM Tris, 5 mM NaCl, pH 7.2). The concentration (per base pair) or calf thymus DNA was determined spectophotometrically on the basic of ε260, 13200 M^−1cm^−1bp.
Absorption Titration. Studying the interaction between drugs and DNA is imperative to pharmaceutical chemistry. Since complexation between a ligand molecule and a nucleic acid leads to optical changes, its binding can be studied using spectroscopic methods like fluorescence and electronic absorption spectroscopy (C. V. Kumar, E. H. Asuncion, J. Am. Chem. Soc. 1993, 115, 8547-8553). The binding interactions of lanthanide (III) porphyrin complexes with calf thymus DNA were investigated using UV-vis spectroscopy and depicted in FIGS. 9 and 10 (selected absorption curves were shown for clear plot). By monitoring wavelengths at 410 nm (complex 1) and 430 nm (complex 2b), successive additions of calf thymus DNA to the respective complexes in Tris buffer solution containing <5% DMSO were done until saturation. Moderate hyprochromicities of 27% and 23% in complexes 1 and 2b were found without significant bathochromic spectral shift. […] The values of binding constant K were calculated from a plot of D/Δεap versus D based on the following equation:
Where D is the concentration of DNA, Δεap=|ΔεA−ΔεB| wherein εA=Aobs/[complex], and Δε=|ΔεB−ΔεF|; εB and εF correspond to the extinction coefficients of DNA-bound lanthanide(III) porphyrin complex adduct and its free complex, respectively. By monitoring absorbance at 410 nm (complex 1) and 430 nm (complex 2b), plots of D/Δεap against D are inserted in FIGS. 9 and 10. Linear curves in two graphs were plotted with slopes of 4.63×10^−5 (complex 1) and 3.60×10^−5 (complex 2b) (both R=0.99).

[6] = IC50 of cisplatin divided by IC50 of complex

- IC50 ratio cisplatin/complex, QGY-7703 [2, 6]: 763
- IC50 ([2]; MTT, 37° C., 48 h, mean ± SD): 60 nM
- IC50 ratio cisplatin/complex, MCF-7 [4, 6]: 63.89
- IC50 ([4]; MTT, 37° C., 48 h, mean ± SD): 550 nM
Substance: [Yb2(OEP)2](μ-OH)2 [Complex 1]
- effect of 3-MA pretreatment on viability of 1-treated cells (HeLa cells [1]): significantly increases cell viability
- times more effective than cisplatin in eradicating QGY-7703 human liver cancer cell line ([2]; compared with cisplatin): 760 times
- IC50 ratio cisplatin/complex, QGY-TR50 [3, 6]: 60.3
- IC50 ([3]; MTT, 37° C., 48 h, mean ± SD): 540 nM
- level of cleaved PARP (85 kDa) (PARP): gradual increase
- cytotoxic activity toward breast cancer cell line (MCF-7), times higher than that of cisplatin ([4]; compared with cisplatin): 60 times
- cell morphology (type of cell death) under confocal microscopy (HeLa cells [5]): both living and apoptotic cells were observed
- hyprochromicity on addition of calf thymus DNA (calf thymus DNA; <5% DMSO, until saturation, 410 nm (1), 430 nm (2b)): 27%
- binding constant K with calf thymus DNA (calf thymus DNA; UV-vis absorption titration, 20° C.): (1.59±0.3)×10^6 mol^−1dm^3

— patent publication US20100069345A1, “Lanthanide-porphyrin complexes as anti-tumor agents” (priority 2005, published 2010)
